Results published in US12129265B2, “Therapeutic agents and uses thereof” (Ankh Life Sciences Limited, priority 2020, dated 2024).
Like-named read-outs stand apart in the source and are kept apart here. Values belong to the compound of their own block, whether it stands above or below them.

What was measured:
Experiment in all cases: CellTiter-Glo in vitro cell proliferation assay, Example 8
FaDu cells = type: cell-based, Human; conditions: read-out: Mean IC50
Procedure, shortened: (§1)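 24 h pre-incubation of plated cells at 37 °C; compound 0.0075–100 μM in DMSO; 72 h exposure at 37 °C; CellTiter-Glo, 60 min RT; luminescence read. Vehicle controls: DMSO alone.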

MDA-MB-468 cells = type: cell-based, Human; conditions: read-out: Mean IC50
Procedure, shortened: as §1

MDA-MB-231 cells = type: cell-based, Human; conditions: read-out: Mean IC50
Procedure, shortened: as §1

SiHA cells = type: cell-based, Human; conditions: read-out: Mean IC50
Procedure, shortened: as §1

H1650 (EGFR mut) cells = type: cell-based, Human; conditions: read-out: Mean IC50
Procedure, shortened: as §1

A498 cells = type: cell-based, Human; conditions: read-out: Mean IC50
Procedure, shortened: as §1

KMS-34 cells = type: cell-based, Human; conditions: read-out: Mean IC50
Procedure, shortened: as §1

KMM-1 cells = type: cell-based, Human; conditions: read-out: Mean IC50
Procedure, shortened: as §1

BxPC-3 cells = type: cell-based, Human; conditions: BxPC-3, Pancreatic, read-out: Mean IC50
Procedure, shortened: as §1

JIM1 cells = type: cell-based, Human; conditions: read-out: Mean IC50
Procedure, shortened: as §1

L363 cells = type: cell-based, Human; conditions: read-out: Mean IC50
Procedure, shortened: as §1

OCI-LY3 cells = type: cell-based, Human; conditions: read-out: Mean IC50
Procedure, shortened: as §1

AN3CA cells = type: cell-based, Human; conditions: Endometrial, read-out: Mean IC50
Procedure, shortened: as §1

MM.1s cells = type: cell-based, Human; conditions: MM1.S; MM.IS, Human Myeloma, 72 hours; read-out: Mean IC50
Procedure, shortened: as §1

A2780 cells = type: cell-based, Human; conditions: A2780, Ovarian, read-out: Mean IC50
Procedure, shortened: as §1

MIA PaCa-2 cells = type: cell-based, Human; conditions: MIA PaCa-2, Pancreatic, read-out: Mean IC50
Procedure, shortened: as §1

KHM-1B cells = type: cell-based, Human; conditions: Human Myeloma, 72 hours, read-out: Mean IC50
Procedure, shortened: as §1

HCC70 cells = type: cell-based, Human; conditions: read-out: Mean IC50
Procedure, shortened: as §1

H1975 (EGFR mut) cells = type: cell-based, Human; conditions: read-out: Mean IC50
Procedure, shortened: as §1

KMS-11 cells = type: cell-based, Human; conditions: KMS-11, Human Myeloma, 72 hours; read-out: Mean IC50
Procedure, shortened: as §1

MOLP-8 cells = type: cell-based, Human; conditions: read-out: Mean IC50
Procedure, shortened: as §1

DOHH-2 cells = type: cell-based, Human; conditions: read-out: Mean IC50
Procedure, shortened: as §1

KMS-27 cells = type: cell-based, Human; conditions: KMS-27, Human Myeloma, 72 hours; read-out: Mean IC50
Procedure, shortened: as §1

HEC-1a cells = type: cell-based, Human; conditions: Endometrial, read-out: Mean IC50
Procedure, shortened: as §1

H929 cells = type: cell-based, Human; conditions: NCI-H929; H929, Human Myeloma, 72 hours; read-out: Mean IC50
Procedure, shortened: as §1

A2780CP cells = type: cell-based, Human; conditions: Ovarian, read-out: Mean IC50
Procedure, shortened: as §1

ASPC-1 cells = type: cell-based, Human; conditions: ASPC-1, Pancreatic, read-out: Mean IC50
Procedure, shortened: as §1

SU-DHL-4 cells = type: cell-based; conditions: Homo sapiens; SU-DHL-4, Diffuse Large B-Cell Lymphoma, 72 hours; read-out: Mean IC50
Procedure: (§2) In this Example, in vitro cell proliferation assays were performed using: (1) Human Myeloma tumor cell lines; (2) Human Lymphoma tumor cell lines; (3) Solid Human tumor cell lines; and (4) Parental, Lenalidomide resistant and Bortezomib resistant Jeko-1 Mantle cell Lymphoma tumor cell lines. The compounds tested were three diharmaline compounds, namely the 518B562 (or simply 562), 560, and 561 compounds. In addition, a monoharmaline product designated as 518F014 was also tested. This monoharmaline product had the following structure:
(§3) Each proliferation assay was carried out as follows. The test cells were plated in growth media using a 384-well microtiter plate at 50 μL volume. The cells were incubated for 24 hours at 37° C. in a humidified incubator. After 24 hours of incubation, the test compounds were added to the test wells in DSMO solvent, at concentrations ranging from 0.0075-100 μM. Control wells received equal volumes of DSMO, without compound. Following drugging, the cells were incubated for 72 hours at 37° C. in a humidified incubator. After this exposure, 100 μL of a 1:1 mixture of sterile water and CellTiter-Glo® reagent (Promega) was added to each well. The plates were then incubated for 60 minutes at room temperature, followed by recording the luminescence value of each well using a luminometer as a measure of cell proliferation.

[1] = system: Jeko-1 Bortezomib resistant cells; type: cell-based; conditions: Homo sapiens, Mantle Cell Lymphoma, 72 hours
Procedure: as §2, §3

[2] = system: Jeko-1 Lenalidomide resistant cells; type: cell-based; conditions: Homo sapiens, Mantle Cell Lymphoma, 72 hours
Procedure: as §2, §3

N87 cells = type: cell-based; conditions: Homo sapiens; N87, Gastric, 72 hours; read-out: Mean IC50
Procedure: as §2, §3

RXF-393 cells = type: cell-based; conditions: Homo sapiens; RXF-393, Renal, 72 hours; read-out: Mean IC50
Procedure: as §2, §3

SU-DHL-6 cells = type: cell-based; conditions: Homo sapiens; SU-DHL-6, Diffuse Large B-Cell Lymphoma, 72 hours; read-out: Mean IC50
Procedure: as §2, §3

Jeko-1 Parental cells = type: cell-based; conditions: Homo sapiens, Mantle Cell Lymphoma, 72 hours
Procedure: as §2, §3

RPMI-8226 cells = type: cell-based, Human; conditions: RPMI-8226, HMM
Procedure, shortened: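 After 24 h plating, cells exposed to compound in DMSO over 0.0075–100 µM for 72 h at 37 °C. Viability read by CellTiter-Glo luminescence after 60 min at room temperature, relative to DMSO controls.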

[3] = Homo sapiens, Squamous, 72 hours

IC50 (MDA-MB-468 cells; Homo sapiens, MDA-MB-468, Triple Negative Breast, 72 hours): > 100 µM
IC50 (MDA-MB-231 cells; Homo sapiens, MDA-MB-231, Triple Negative Breast, 72 hours): 78.2 µM
IC50 (H1650 (EGFR mut) cells; Homo sapiens, NCI-H1650, Non Small Cell Lung, 72 hours): > 100 µM
IC50 (BxPC-3 cells; Homo sapiens, 72 hours): 98.7 µM
IC50 (OCI-LY3 cells; Homo sapiens, OCI-LY3, Diffuse Large B-Cell Lymphoma, 72 hours): > 100 µM
IC50 (MM.1s cells): > 100 µM
IC50 (A2780 cells; Homo sapiens, 72 hours): 70.9 µM
IC50 (MIA PaCa-2 cells; Homo sapiens, 72 hours): > 100 µM
IC50 (H1975 (EGFR mut) cells; Homo sapiens, NCI-H1975, Non Small Cell Lung, 72 hours): 79.7 µM
IC50 (H929 cells): 80.3 µM
IC50 (A2780CP cells; Homo sapiens, A2780C/P, 72 hours): > 100 µM
IC50 (ASPC-1 cells; Homo sapiens, ASPC1, 72 hours): 87.1 µM
IC50 (SU-DHL-4 cells): 91.3 µM
IC50 (SU-DHL-6 cells): 50 µM
SMILES: COc1ccc2c(c1)=NC1=C(CCc3ccc(O)c(OC)c3)NCCC=21 [518F014]
IC50 (FaDu cells; [3]): > 100 µM
IC50 (SiHA cells; [3]): > 100 µM
IC50 (A498 cells; Homo sapiens, A498, Renal, 72 hours): > 100 µM
IC50 (KMS-34 cells; KMS-34, Human Myeloma, 72 hours): > 100 µM
IC50 (KMM-1 cells; KMM-1, Human Myeloma, 72 hours): 82.2 µM
IC50 (JIM1 cells; JIM1, Human Myeloma, 72 hours): 85.2 µM
IC50 (L363 cells; L-363, L363, Human Myeloma, 72 hours): 99.1 µM
IC50 (AN3CA cells; Homo sapiens, AN3-CA, 72 hours): 88.1 µM
IC50 (KHM-1B cells): 94.1 µM
IC50 (HCC70 cells; Homo sapiens, HCC70, Triple Negative Breast, 72 hours): > 100 µM
IC50 (KMS-11 cells): > 100 µM
IC50 (MOLP-8 cells; MOLP-8, Human Myeloma, 72 hours): 86.4 µM
IC50 (DOHH-2 cells; Homo sapiens, DOHH-2, Diffuse Large B-Cell Lymphoma, 72 hours): > 100 µM
IC50 (KMS-27 cells): 91.2 µM
IC50 (HEC-1a cells; Homo sapiens, 72 hours): > 100 µM
IC50 [1]: 87.6 µM
IC50 [2]: 79.4 µM
IC50 (N87 cells): 40.6 µM
IC50 (RXF-393 cells): 96.5 µM
IC50 (Jeko-1 Parental cells): 89.4 µM

SMILES: COc1ccc2c3c([nH]c2c1)C(CC(CC1=NCCc2c1[nH]c1cc(OC)ccc21)C1CCCCC1)=NCC3 [compound 30]
IC50 (RPMI-8226 cells): 4.3 µM
IC50 (FaDu cells; H&N - SC): 6.82 µM
IC50 (MDA-MB-468 cells; MDA-MB-468, TNBC): 7.46 µM
IC50 (MDA-MB-231 cells; MDA-MB-231, TNBC): 11.1 µM
IC50 (SiHA cells; Cervical - SC): 17.8 µM
IC50 (H1650 (EGFR mut) cells; NSCLC): 16.6 µM
IC50 (A498 cells; A498, RCC): 17.1 µM
IC50 (KMS-34 cells; KMS-34, HMCL-B): 4.81 µM
IC50 (KMM-1 cells; KMM-1, HMCL-A): 5.81 µM
IC50 (BxPC-3 cells): 7.73 µM
IC50 (JIM1 cells; JIM1, HMCL): 7.07 µM
IC50 (L363 cells; L363, PCL/MM): 5.57 µM
IC50 (OCI-LY3 cells; OCI-LY3, ABC-DLBCL): 7.28 µM
IC50 (AN3CA cells): 5.01 µM
IC50 (A2780 cells): 6.45 µM
IC50 (MIA PaCa-2 cells): 5.47 µM
IC50 (HCC70 cells; HCC70, TNBC): 18.5 µM
IC50 (H1975 (EGFR mut) cells; NSCLC): 11.4 µM
IC50 (MOLP-8 cells; MOLP-8, MM IgD): 2.7 µM
IC50 (DOHH-2 cells; DoHH-2, GCB-DLBCL): 5.36 µM
IC50 (HEC-1a cells): 9.91 µM
IC50 (A2780CP cells): 8.55 µM
IC50 (ASPC-1 cells): 11 µM
